“And” between values parts separate entries of the source, which are not always exact repeats. Equal values may be shown once.

Test [1] concerns the target T1, human ETB receptor (Homo sapiens, UniProt P24530).
T1 construct: expressed in transfected cells; host or cells: COS7 cells
T1 sequence (P24530 27-442): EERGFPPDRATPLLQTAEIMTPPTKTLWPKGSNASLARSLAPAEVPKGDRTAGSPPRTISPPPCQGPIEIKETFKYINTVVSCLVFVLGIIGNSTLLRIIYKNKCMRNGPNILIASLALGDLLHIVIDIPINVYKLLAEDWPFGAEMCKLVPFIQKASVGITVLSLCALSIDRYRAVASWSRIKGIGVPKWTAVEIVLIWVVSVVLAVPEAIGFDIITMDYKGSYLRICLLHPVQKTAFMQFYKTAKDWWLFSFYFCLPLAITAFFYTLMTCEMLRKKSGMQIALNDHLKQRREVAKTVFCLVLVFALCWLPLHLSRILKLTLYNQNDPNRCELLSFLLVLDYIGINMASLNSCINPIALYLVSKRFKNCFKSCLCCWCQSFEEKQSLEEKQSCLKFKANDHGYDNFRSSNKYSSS
Description: Endothelin binding inhibition, Binding Test #2: competition with 125I-ET-1 for ETB receptors on transfected COS7 cell membranes. The settings on record: for inhibition at 100 µM: read-out: ETB % inhibition @ 100 μM, @ 100 μM, incubation at 24° C. The procedure, abridged:
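Membranes from COS7 cells transfected with human ETB receptor, prepared in HEPES pH 7.4 with aprotinin, MnCl2/DNase treatment at 37° C for 30 min. Test compounds compete with 125I-labeled ET-1 for receptor binding; membrane used at 1 μg/50 μL binding buffer.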

Test [2] addresses T2, human ETA receptors (Homo sapiens, UniProt P25101).
T2 construct: endogenous in cells; host or cells: TE 671 cells (ATCC HTB 139), membrane preparation
T2 sequence (P25101 21-427): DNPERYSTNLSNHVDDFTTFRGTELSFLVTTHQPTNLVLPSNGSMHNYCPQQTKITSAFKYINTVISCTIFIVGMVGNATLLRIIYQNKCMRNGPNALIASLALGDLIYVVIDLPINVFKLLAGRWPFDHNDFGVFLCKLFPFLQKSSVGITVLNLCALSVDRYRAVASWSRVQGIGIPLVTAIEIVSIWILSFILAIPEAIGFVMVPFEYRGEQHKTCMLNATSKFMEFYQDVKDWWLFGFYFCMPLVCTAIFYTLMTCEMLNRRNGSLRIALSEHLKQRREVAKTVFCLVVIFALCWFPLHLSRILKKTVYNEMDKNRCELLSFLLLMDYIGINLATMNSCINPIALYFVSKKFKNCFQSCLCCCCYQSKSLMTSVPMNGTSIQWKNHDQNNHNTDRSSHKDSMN
Briefly: Endothelin binding inhibition, Binding Test #1: competition with 125I-ET-1 for ETA receptors on TE 671 cell membranes.

Where [3] appears, read: incubation at 24° C. (values marked †).
Setting [4] is: incubation at 4° C. (values without †).

Turning to `Cc1noc(NS(=O)(=O)c2ccsc2N)c1Cl` [N-(4-chloro-3-methyl-5-isoxazolyl)-2-aminothiophene-3-sulfonamide], the IC50 in test [1] (setting [3]) amounted to 6.2 µM; in test [2] (setting [3]), 14000 nM.
On to `Cc1noc(NS(=O)(=O)c2c(Cc3ccc4c(c3)OCO4)sc3ccccc23)c1Cl` [N-(4-chloro-3-methyl-5-isoxazolyl)-2-[(3,4-methylenedioxy)benzyl]benzo[b]thiophene-3-sulfonamide], for which the IC50 amounted to 0.936 ± 0.095 µM in test [1] (setting [3]) and 11 ± 5 nM in test [2] (setting [3]).
`Cc1cc2c(cc1C=CCc1sccc1S(=O)(=O)Nc1onc(C)c1Br)OCO2` [N-(4-bromo-3-methyl-5-isoxazolyl)-2-[2-methyl-4,5-(methylenedioxy)cinnamyl]thiophene-3-sulfonamide]: the IC50 in test [1] (setting [3]) came to 3.28 µM; in test [2] (setting [3]), 80.4 nM.
As to `Cc1noc(NS(=O)(=O)c2ccsc2C(=O)Oc2ccc3c(c2)OCO3)c1C` [N-(3,4-dimethyl-5-isoxazolyl)-2-{(3,4-(methylenedioxy)phenoxy]carbonyl}thiophene-3-sulfonamide], the inhibition at 100 µM in test [1] was 30%. For the same compound, the IC50 in test [2] (setting [3]) amounted to 3610 nM.
For the compound `Cc1noc(NS(=O)(=O)c2ccsc2C(=O)Cc2cc3c(cc2C#N)OCO3)c1Cl` [N-(4-chloro-3-methyl-5-isoxazolyl)-2-[2-cyano-4,5-(methylenedioxy)phenylacetyl]thiophene-3-sulfonamide], the IC50 was approximately 0.7 µM in test [1] (setting [3]) and approximately 300 nM in test [2] (setting [3]).
For `Cc1noc(NS(=O)(=O)c2sccc2-c2ccc3c(c2)OCO3)c1Br` [N-(4-bromo-3-methyl-5-isoxazolyl)-3-[(3,4-methylenedioxy)phenyl]thiophene-2-sulfonamide], in that order: 79 µM and 500 nM.
The corresponding values for `Cc1noc(NS(=O)(=O)c2ccsc2C(=O)Nc2ccccc2C(=O)O)c1Br` [N-(4-bromo-3-methyl-5-isoxazolyl)-2-[2-carboxylphenyl)aminocarbonyl]-thiophene-3-sulfonamide] are 20 µM and 210 nM.
For `COC(=O)c1c(C)cc(C)c(NC(=O)c2sccc2S(=O)(=O)Nc2onc(C)c2Cl)c1C` [N-(4-chloro-3-methyl-5-isoxazolyl)-2-(3-methoxycarbonyl-2,4,6-trimethylphenylaminocarbonyl)thiophene-3-sulfonamide], the IC50 in test [1] (setting [3]) was 16.5 µM; in test [2] (setting [3]) it was 0.321 nM and 0.92 nM.
Regarding “N-(4-chloro-3-methyl-5-isoxazolyl)-2-[β-acetoxy-2-methyl-4,5-(methylenedioxy)styryl]thiophene-3-sulfonamide”, the concentration for half-maximal inhibition (IC50) in test [1] (setting [3]) was determined as 3.74 µM; in test [2] (setting [4]), 5.44 nM.
With `COc1ccc(NC(=O)c2sccc2S(=O)(=O)Nc2onc(C)c2Cl)c(C)c1` [N-(4-chloro-3-methyl-5-isoxazolyl)-2-[4-methoxy-2-methylphenyl)aminocarbonyl]thiophene-3-sulfonamide], the IC50 turned out to be 0.14 µM in test [1] (setting [3]) and 27 nM in test [2] (setting [3]).
Take `Cc1ccc(OCc2sccc2S(=O)(=O)Nc2onc(C)c2Br)c(C)c1` [N-(4-bromo-3-methyl-5-isoxazolyl)-2-[(2,4-dimethylphenoxy)methyl]thiophene-3-sulfonamide]: the values for the IC50 in test [1] (setting [3]) and in test [2] (setting [3]) were 4.48 µM and 308 nM, respectively.
As to `Cc1ccc(NC(=O)c2sccc2S(=O)(=O)Nc2onc(C)c2Cl)cc1` [N-(4-chloro-3-methyl-5-isoxazolyl)-2-[(4-tolyl)aminocarbonyl]thiophene-3-sulfonamide], the IC50 in test [1] (setting [4]) was 2.93 µM; in test [1] (setting [3]) it was 14 µM; in test [2] (setting [4]), 1.16 nM; in test [2] (setting [3]), 10.5 nM.
Consider `Cc1ccc(CCc2sccc2S(=O)(=O)Nc2onc(C)c2Br)cc1` [N-(4-bromo-3-methyl-5-isoxazolyl)-2-[(4-methyl)phenethyl]thiophene-3-sulfonamide], for which the concentration for half-maximal inhibition (IC50) in test [1] (setting [3]) is 40.1 µM; in test [2] (setting [3]), 106 nM.
The corresponding values for `Cc1cc(C)c(NC(=O)c2sccc2S(=O)(=O)Nc2onc(C)c2Cl)c(C)c1` [N-(4-chloro-3-methyl-5-isoxazolyl)-2-(2,4,6-trimethylphenylaminocarbonyl)thiophene-3-sulfonamide] are 11.3 µM and 1.6 nM.
Regarding `Cc1ccc(OC(=O)c2sccc2S(=O)(=O)Nc2onc(C)c2Cl)c(C)c1` [N-(4-chloro-3-methyl-5-isoxazolyl)-2-[(2,4-dimethylphenoxy)carbonyl]thiophene-3-sulfonamide], the half-inhibitory concentration (IC50) in test [1] (setting [3]) was found to be 68.5 µM; in test [2] (setting [3]) it was 648 nM.
With `Cc1cc(C)c(NC(=O)c2sccc2S(=O)(=O)Nc2noc(C)c2Cl)c(C)c1CO` [N-(4-chloro-5-methyl-3-isoxazolyl)-2-(3-hydroxymethyl-2,4,6-trimethylphenylaminocarbonyl)thiophene-3-sulfonamide], the figures for the IC50 in test [1] (setting [3]) and in test [2] (setting [3]) were 3.08 µM and 0.88 nM, respectively.
For `Cc1ccc(CCc2ccsc2S(=O)(=O)Nc2onc(C)c2Br)cc1` [N-(4-bromo-3-methyl-5-isoxazolyl)-3-(4-methylphenethyl)thiophene-2-sulfonamide], in that order: 9.4 µM and 347 nM.
As to `CCCc1ccc(-c2ccsc2S(=O)(=O)Nc2onc(C)c2Br)cc1` [N-(4-bromo-3-methyl-5-isoxazolyl)-3-(4-propylphenyl)thiophene-2-sulfonamide], the 50% inhibitory concentration (IC50) in test [1] (setting [3]) was 8.48 µM; in test [2] (setting [4]), 87.3 nM.
As to `Cc1ccc(NC(=O)c2sccc2S(=O)(=O)Nc2onc(C)c2Cl)nc1` [N-(4-chloro-3-methyl-5-isoxazolyl)-2-[(3-methyl-6-pyridyl)aminocarbonyl]thiophene-3-sulfonamide], the half-inhibitory concentration (IC50) was found to be 43.7 µM in test [1] (setting [3]) and 23 nM in test [2] (setting [3]).
In the case of `Cc1cc2c(cc1NC(=O)c1sccc1S(=O)(=O)Nc1onc(C)c1Cl)OCO2` [N-(4-chloro-3-methyl-5-isoxazolyl)-2-[2-methyl-4,5-(methylenedioxy)phenylaminocarbonyl]thiophene-3-sulfonamide], the IC50 was found to be 355 µM in test [1] (setting [3]) and 3 nM in test [2] (setting [3]).
For `COc1ccc2c(S(=O)(=O)Nc3onc(C)c3Cl)c(Cc3ccc4c(c3)OCO4)sc2c1` [N-(4-chloro-3-methyl-5-isoxazolyl)-6-methoxy-2-[3,4-(methylenedioxy)benzyl]benzo[b]thiophene-3-sulfonamide], the results for the IC50 in test [1] (setting [3]) and in test [2] (setting [3]) were 2.39 µM and approximately 2000 nM, respectively.
In the case of `Cc1noc(NS(=O)(=O)c2ccsc2C(=O)N2CCN(Cc3ccc4c(c3)OCO4)CC2)c1Cl` [N-(4-chloro-3-methyl-5-isoxazolyl)-2-{[4-(3,4-methylenedioxybenzyl)piperazin-1-yl]carbonyl}thiophene-3-sulfonamide], the 50% inhibitory concentration (IC50) is more than 100 µM in test [1] (setting [3]) and 20000 nM in test [2] (setting [3]).
On to `Cc1noc(NS(=O)(=O)c2ccsc2C(=O)C(C#N)c2ccc3c(c2)OCO3)c1Cl` (stereo not drawn) [N-(4-chloro-3-methyl-5-isoxazolyl)-2-{1-cyano-1-[(3,4-methylenedioxy)phenyl]acetyl}thiophene-3-sulfonamide], for which the values for the IC50 in test [1] (setting [3]) and in test [2] (setting [3]) were 27 µM and 2100 nM, respectively.
The corresponding values for `COc1cccc(CC(=O)c2sccc2S(=O)(=O)Nc2onc(C)c2Br)c1` [N-(4-bromo-3-methyl-5-isoxazolyl)-2-[(3-methoxyphenyl)acetyl]thiophene-3-sulfonamide] are 19.1 µM and 30 nM.
Consider `Cc1noc(NS(=O)(=O)c2ccsc2C(=O)Oc2cccc(N(C)C)c2)c1Cl` [N-(4-chloro-3-methyl-5-isoxazolyl)-2-[(3-dimethylamino)phenoxycarbonyl]thiophene-3-sulfonamide], for which the figures for the IC50 in test [1] (setting [3]) and in test [2] (setting [3]) were 60 µM and 1400 nM, respectively.
On to `Cc1ccccc1OC(=O)c1sccc1S(=O)(=O)Nc1onc(C)c1Br` [N-(4-bromo-3-methyl-5-isoxazolyl)-2-[(2-methylphenoxy)carbonyl]thiophene-3-sulfonamide], for which the half-inhibitory concentration (IC50) in test [1] (setting [3]) came to 105 µM; in test [2] (setting [3]), 684 nM.
For `Cc1ccc(CC(=O)c2sccc2S(=O)(=O)Nc2onc(C)c2C)c(C)c1` [N-(3,4-dimethyl-5-isoxazolyl)-2-(2,4-dimethylphenylacetyl)thiophene-3-sulfonamide], the 50% inhibitory concentration (IC50) in test [1] (setting [3]) was determined as 17.4 µM; in test [2] (setting [3]) it was 2.7 nM.
For `Cc1ccc(CCc2ccsc2S(=O)(=O)Nc2onc(C)c2Br)c(C)c1` [N-(4-bromo-3-methyl-5-isoxazolyl)-3-(2,4-dimethylphenethyl)thiophene-2-sulfonamide], in that order: 4.3 µM and 101 nM.
With `Cc1cc(C)c(OC(=O)c2sccc2S(=O)(=O)Nc2onc(C)c2C)c(C)c1` [N-(3,4-dimethyl-5-isoxazolyl)-2-[(2,4,6-trimethylphenoxy)carbonyl]thiophene-3-sulfonamide], the inhibition at 100 µM in test [1] came out at 8%. Moreover, the IC50 in test [2] (setting [3]) came out at 537 nM.
